Laboratory results taken from publication PMC12818745 (ACS Chemical Neuroscience, 2025).

Each compound was assayed against T1, Aβ42 aggregation (Homo sapiens, UniProt P05067) (assay: Thioflavin S assay of Aβ42 aggregation in E. coli cells overexpressing Aβ42). Details: read-out: Aβ42 inhibition %.
T1 construct: expressed in transfected cells; host or cells: E. coli BL21 (DE3), pET vector
T1 sequence (P05067 672-713): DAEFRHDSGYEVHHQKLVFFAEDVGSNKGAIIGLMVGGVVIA
Format: cell-based, Escherichia coli
Protocol: The antiaggregating profiles of both series A and B were evaluated using a fluorescence Thioflavin S (ThS) assay in cellulo, which monitors ThS fluorescence in the presence of β-sheet-rich structures, such as Aβ and tau protein aggregates. This method, based on recombinant Escherichia coli (E. coli) bacteria overexpressing insoluble aggregates, offers a simple and cost-effective approach to model aggregation processes in mammalian systems and has been validated for use in drug discovery studies. , Compounds were tested at a screening concentration of 50 μM for their ability to inhibit Aβ42 aggregation. The results, summarized in Table , reveal distinct antiaggregating profiles between series A and B, which are once again influenced by their structural differences.
42 Amino acid Aβ42 was cloned and overexpressed in E. coli BL21 (DE3) competent cells using the pET vector harboring the DNA sequence of Aβ42. Due to the addition of the initiation codon ATG preceding genes, the resulting overexpressed peptide contained an additional methionine residue at its N-terminus. For the preparation of overnight cultures, a colony of BL21 (DE3) cells carrying the plasmid for expression was inoculated in 10 mL of M9 minimal medium supplemented with 50 μg mL^–1 kanamycin at 37 °C. Subsequently, a 1:500 dilution of the overnight culture was added to fresh M9 minimal medium containing 50 μg mL^–1 kanamycin and 25 μM ThS. The bacterial culture was then incubated at 37 °C with agitation at 250 rpm. Upon reaching an OD600 of 0.6, 980 μL of the culture was transferred into 1.5 mL Eppendorf tubes, each containing 10 μL of the compound to be tested dissolved in DMSO and 10 μL of 100 mM isopropyl 1-thio-β-D-galactopyranoside (IPTG) or, alternatively, 10 μL of water for the noninduced controls. The final compound concentration was adjusted to […]. The samples were allowed to grow overnight at 37 °C with agitation at 1400 rpm using a Thermomixer (Eppendorf). Negative controls, representing maximum amyloid presence, utilized free DMSO.
ThS (T1892) and all other chemical reagents were purchased from Sigma (St. Louis, MO). Stock solutions of ThS (250 μM) were prepared using doubly distilled water purified via a Milli-Q system (Millipore). For the fluorescence assay, ThS spectra were recorded utilizing an AmincoBowman series 2 luminescence spectrophotometer (Aminco-Bowman AB2, SLM Aminco, Rochester, NY) within the range of 460 to 600 nm at a temperature of 25 °C. The excitation wavelength employed was 445 nm, with slit widths set at 4 nm. The emission at 485 nm, corresponding to the ThS peak observed in the presence of amyloids, was recorded. To standardize ThS fluorescence relative to bacterial concentration in both in vitro and cell-based assays, the OD600 was determined using a Shimadzu UV-2401 PC UV–vis spectrophotometer. Fluorescence normalization was executed by setting the ThS fluorescence of bacterial cells expressing the peptide or protein in the absence of the drug as 100%, while that of bacterial cells not expressing the peptide or protein was established as 0%.
In the case of C#CCOc1ccc(OC(F)(F)F)cc1/C=C/c1cc(=O)c2ccccc2o1 [Compound 7h, (E)-2-[2-(Prop-2-yn-1-yloxy)-5-(trifluoromethoxy)styryl]-4H-chromen-4-one], the inhibition at 50 µM is reported as 11 ± 2%.
C#CCOc1ccc(F)cc1/C=C/c1cc(=O)c2ccc(OC)cc2o1 [Compound 7u, (E)-2-[5-Fluoro-2-(prop-2-yn-1-yloxy)styryl]-7-methoxy-4H-chromen-4-one] showed an inhibition at 50 µM of 28 ± 3.5%.
For C#CCOc1ccc2ccccc2c1/C=C/c1cc(=O)c2ccc(OC)cc2o1 [Compound 8b], the inhibition at 50 µM was 32 ± 4.3%.
For COc1cccc2oc3cc4c(cc3c(=O)c12)COc1ccccc1-4 [Compound 11c, 9-Methoxy-6H,8H-chromeno[3,4-b]xanthen-8-one], the inhibition at 50 µM was 34 ± 4.4%.
C#CCOc1ccccc1/C=C/c1cc(=O)c2ccc(OC)cc2o1 [Compound 7b, (E)-7-Methoxy-2-[2-(prop-2-yn-1-yloxy)styryl]-4H-chromen-4-one] gave an inhibition at 50 µM of 23 ± 1.8%.
Compound C#CCOc1c(Br)cc(Cl)cc1/C=C/c1cc(=O)c2ccc(OC)cc2o1 [Compound 7w, (E)-2-[3-Bromo-5-chloro-2-(prop-2-yn-1-yloxy)styryl]-7-methoxy-4H-chromen-4-one] has an inhibition at 50 µM of 35 ± 3%.
In the case of COc1ccc2c(c1)-c1cc3oc4cc(OC)cc(OC)c4c(=O)c3cc1CO2 [Compound 11o, 2,9,11-Trimethoxy-6H,8H-chromeno[3,4-b]xanthen-8-one], the inhibition at 50 µM is reported as 33 ± 4.3%.
Work on N#CCOc1ccccc1/C=C/c1cc(=O)c2ccccc2o1 [Compound 7l, (E)-2-{2-[2-(4-oxo-4H-chromen-2-yl)vinyl]phenoxy}acetonitrile] yielded an inhibition at 50 µM of 34 ± 5.2%.
C#CCOc1ccc(Cl)cc1/C=C/c1cc(=O)c2ccccc2o1 [Compound 7j, (E)-2-[5-Chloro-2-(prop-2-yn-1-yloxy)styryl]-4H-chromen-4-one] showed an inhibition at 50 µM of 11 ± 2.3%.
Work on C#CCOc1c(Br)cc(Cl)cc1/C=C/c1cc(=O)c2ccccc2o1 [Compound 7k, (E)-2-[3-Bromo-5-chloro-2-(prop-2-yn-1-yloxy)styryl]-4H-chromen-4-one] yielded an inhibition at 50 µM of 24 ± 3%.
O=c1cc(/C=C/c2ccccc2OCC#Cc2ccccc2)oc2ccccc12 [Compound 7m, (E)-2-{2-[(3-Phenylprop-2-yn-1-yl)oxy]styryl}-4H-chromen-4-one] was tested, and the inhibition at 50 µM was 28 ± 3.8%.
C#CCOc1ccc(OC(F)(F)F)cc1/C=C/c1cc(=O)c2ccc(OC)cc2o1 [Compound 7t, (E)-7-Methoxy-2-[2-(prop-2-yn-1-yloxy)-5-(trifluoromethoxy)styryl]-4H-chromen-4-one] showed an inhibition at 50 µM of 20 ± 2.3%.
Compound C#CCOc1ccccc1/C=C/c1cc(=O)c2c(OC)cccc2o1 [Compound 7c, (E)-5-Methoxy-2-[2-(prop-2-yn-1-yloxy)styryl]-4H-chromen-4-one] has an inhibition at 50 µM of 33 ± 2.2%.
With C#CCOc1ccc(OC)cc1/C=C/c1cc(=O)c2c(OC)cc(OC)cc2o1 [Compound 7s, (E)-5,7-Dimethoxy-2-[5-methoxy-2-(prop-2-yn-1-yloxy)styryl]-4H-chromen-4-one] the inhibition at 50 µM was 50 ± 1.6%.
In the case of C#CCOc1ccc(OC)cc1/C=C/c1cc(=O)c2ccc(OC)c(OC)c2o1 [Compound 7r], the inhibition at 50 µM is reported as 40 ± 5.6%.
In the case of C#CCOc1ccc(Br)cc1/C=C/c1cc(=O)c2ccccc2o1 [Compound 7g, (E)-2-[5-Bromo-2-(prop-2-yn-1-yloxy)styryl]-4H-chromen-4-one], the inhibition at 50 µM is reported as 25 ± 4.6%.
COc1ccc2c(c1)-c1cc3oc4c(OC)c(OC)ccc4c(=O)c3cc1CO2 [Compound 11n, 2,11,12-Trimethoxy-6H,8H-chromeno[3,4-b]xanthen-8-one] gave an inhibition at 50 µM of 34 ± 4%.
C#CCOc1ccc(F)cc1/C=C/c1cc(=O)c2ccccc2o1 [Compound 7i, (E)-2-[5-Fluoro-2-(prop-2-yn-1-yloxy)styryl]-4H-chromen-4-one] was tested, and the inhibition at 50 µM was 22 ± 4.8%.
C#CCOc1ccc(OC)cc1/C=C/c1cc(=O)c2ccc(OC)cc2o1 [Compound 7p, (E)-7-Methoxy-2-[5-methoxy-2-(prop-2-yn-1-yloxy)styryl]-4H-chromen-4-one] showed an inhibition at 50 µM of 11 ± 1.5%.
